Test results as given in publication PMC6934184, “Selective DNA-PKcs inhibition extends the therapeutic index of localized radiotherapy and chemotherapy” (The Journal of Clinical Investigation, 2019).

Biological target: T1, PRKCH (PKC eta) (Homo sapiens, UniProt P24723)
T1 construct: purchased Thermo Fisher Scientific (Life Technologies) SelectScreen
Assay: SelectScreen Z'LYTE
Assay type: biochemical
In short: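 NU5455 was profiled across the SelectScreen Broad panel of kinase activity and binding assays. Z'LYTE reactions such as CSF1R ran at apparent Km ATP, while the Adapta CAMK1 assay used ATP listed as 10. Values are given as percent.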

T1 sequence (P24723 whole entry): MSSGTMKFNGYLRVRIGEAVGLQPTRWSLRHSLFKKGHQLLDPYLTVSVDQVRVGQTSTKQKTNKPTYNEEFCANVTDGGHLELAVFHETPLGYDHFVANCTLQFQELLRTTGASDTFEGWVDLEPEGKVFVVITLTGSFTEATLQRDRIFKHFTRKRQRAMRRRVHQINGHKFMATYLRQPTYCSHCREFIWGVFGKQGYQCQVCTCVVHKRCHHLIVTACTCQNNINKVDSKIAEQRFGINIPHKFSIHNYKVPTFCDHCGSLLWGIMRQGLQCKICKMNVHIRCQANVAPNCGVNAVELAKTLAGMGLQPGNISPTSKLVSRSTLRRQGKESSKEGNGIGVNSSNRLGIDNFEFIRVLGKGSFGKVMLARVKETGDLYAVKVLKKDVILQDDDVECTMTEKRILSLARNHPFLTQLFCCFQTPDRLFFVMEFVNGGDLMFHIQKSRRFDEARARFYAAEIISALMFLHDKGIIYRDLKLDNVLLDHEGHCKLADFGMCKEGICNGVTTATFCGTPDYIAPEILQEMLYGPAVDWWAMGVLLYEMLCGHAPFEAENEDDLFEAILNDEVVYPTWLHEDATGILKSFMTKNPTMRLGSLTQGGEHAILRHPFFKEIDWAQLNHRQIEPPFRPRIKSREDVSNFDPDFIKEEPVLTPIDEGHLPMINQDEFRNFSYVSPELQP

`CN(C(=O)CN1CCOCC1)c1ccc2sc3c(-c4cccc5c(=O)cc(N6CC7CCC(C6)O7)oc45)cccc3c2c1` [NU5455] was tested, and the inhibition at 1 µM was -4.6%.
